Measurements from US7312206B2, “Sterol derivatives, liposomes comprising sterol derivatives and method for loading liposomes with active substances” (Novosom AG, priority 2001, dated 2007).

Key:
HeLa cells = experiment: Cytotoxicity, MTT test; assay type: cell-based
Method: The toxic effect of the substances was investigated using the MTT test. To this end, HeLa cells were seeded at a density of 2×10^4 cells per cavity of a 96-well titer plate and cultured for two days. Liposomes of varying composition (see Table) were added to the cells at a concentration of 0.5 mM and incubated with these cells for 24 hours. Subsequently, the MTT test was performed.

[1] = Chelating of metal ions (zeta potential of liposomes); assay type: physicochemical; details: compound in the liposome membrane
Method: Liposomes are produced as in Example 4. 40 μl of these liposomes are suspended in 7 ml of buffer (10 mM potassium acetate, 10 mM HEPES, pH 4.2 or pH 7.5). Subsequently, the metal ions are added with the concentrations as indicated, and the zeta potential of the liposomes is measured.

Row | Compound | toxic effect in the MTT test (in words) (HeLa cells) | chelating of metal ions by liposomes including the compound (in words) [1]
1 | Histaminylethaneamine-cholesterol hemisuccinate [His-Chol] | lesser toxic effects | capable of chelating metal ions
2 | CCCCCCCC/C=C\CCCCCCCC(=O)OCC(C[N+](C)(C)C)OC(=O)CCCCCCC/C=C\CCCCCCCC (stereo not shown) [DOTAP] | significant cytotoxic effect | 
3 | CC(C)CCC[C@@H](C)[C@H]1CC[C@H]2[C@@H]3CC=C4C[C@@H](OC(=O)NCCN(C)C)CC[C@]4(C)[C@H]3CC[C@]12C [DC-Chol, N,N-Dimethyl (2-aminoethyl) carbamoylcholesterol] | significant cytotoxic effect | 
